Assay results reported in paper PMC10404663 (The Journal of Biological Chemistry, 2023).

Key:
[1] = target: truncated RocR (RocR^trunc, central domain) (Bacillus subtilis, UniProt P38022); settings: 15 mM ATP, 15 mM MgCl2, pH 7.5, room temperature, no effector
RocB = target: T1, RocB (Bacillus subtilis, UniProt P39635); assay: coupled RocB-RocD assay, P5C-o-aminobenzaldehyde complex at […] nm; format: biochemical; settings: 2 mM MnCl2, PBS, 25 °C, 1 µM RocD, 10 mM 2-oxoglutarate, 80 µM PLP
T1 sequence (P39635 1-566): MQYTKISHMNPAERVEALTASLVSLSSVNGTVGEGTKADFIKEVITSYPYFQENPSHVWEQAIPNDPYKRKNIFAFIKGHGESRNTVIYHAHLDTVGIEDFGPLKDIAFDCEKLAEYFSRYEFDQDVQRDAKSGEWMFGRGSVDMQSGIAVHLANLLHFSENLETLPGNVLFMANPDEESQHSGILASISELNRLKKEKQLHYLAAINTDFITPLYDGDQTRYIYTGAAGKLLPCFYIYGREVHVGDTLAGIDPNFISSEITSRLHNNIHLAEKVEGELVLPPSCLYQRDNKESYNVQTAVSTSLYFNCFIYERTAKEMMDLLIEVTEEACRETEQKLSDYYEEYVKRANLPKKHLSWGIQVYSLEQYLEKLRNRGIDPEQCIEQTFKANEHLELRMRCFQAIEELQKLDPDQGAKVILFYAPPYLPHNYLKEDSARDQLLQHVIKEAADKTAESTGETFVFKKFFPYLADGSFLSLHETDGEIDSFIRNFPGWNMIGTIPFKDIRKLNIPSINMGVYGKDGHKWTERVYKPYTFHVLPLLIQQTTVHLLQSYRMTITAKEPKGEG

dynamic light scattering = target: the molecule itself; assay: dynamic light scattering

## Nc1ncnc2c1ncn2[C@@H]1O[C@H](COP(=O)(O)OP(=O)(O)OP(=O)(O)O)[C@@H](O)[C@H]1O [ATP]
[1]
  kobs: the truncated protein was active irrespective of the presence of potential effector molecules

## NC(=O)NCCC[C@H](N)C(=O)O [citrulline]
RocB
  KM: 7.355 mM l^-1

B1: RocR, transcription activator of the roc genes (6xHis-RocR) (natural protein, Bacillus subtilis, UniProt P38022 1-461, looked up)
chain: MVKDSEFLTLVFQSILDEIDVGLHVVDEHGNTIVYNNKMMQIEDMEKHDVLNKNLMDVFMFSKQQDSTLVQALQEGKTIKNVKQSYFNNKGQEITTINHTYPIVQDGKIRGAVEIAKDVTKLERLIRENMNKKGSTTYTFDSILGTSPAIQDVIENAKRATRTSSSVLLAGETGTGKELFAQSIHNGSDRSGGPFISQNCAALPDSLVESILFGTKKGAFTGAVDQPGLFEQAHGGTLLLDEINSLNLSLQAKLLRALQERKIRRIGSTKDTPIDVRIIATMNEDPIDAIAGERMRKDLYYRLSVVTLIIPPLRERKEDILLLASEFIQKNNHLFQMNVEHISDDVKQFFLSYDWPGNIRELEHMIEGAMNFMTDEQTITASHLPYQYRMKIKPADIPEPETPRHQPAADLKEKMESFEKYVIENVLRKHGHNISKAAQELGISRQSLQYRLKKFSHSSNE
Dynamic light scattering
  stoichiometry N: ~2
